Test results from ChEMBL document CHEMBL5150024, “Design and synthesis of TPP+-Mitomycin C conjugate with reduced toxicity” (Bioorg Med Chem Lett, 2022).
Active and inactive are the calls of the source. The rule behind the calls is not given here.

What was measured:
A-375 = assay: Antiproliferative activity against human A-375 cells assessed as inhibition of cell growth incubated for 48 hrs by MTT assay; type: functional, cell-based; conditions: A-375, 48 h
MCF7 = assay: Antiproliferative activity against human MCF7 cells assessed as inhibition of cell growth incubated for 48 hrs by MTT assay; type: functional, cell-based; conditions: MCF7, 48 h
MDA-MB-231 = assay: Antiproliferative activity against human MDA-MB-231 cells assessed as inhibition of cell growth incubated for 48 hrs by MTT assay; type: functional, cell-based; conditions: MDA-MB-231, 48 h
[1] = Cytotoxicity against human L02 cells assessed as inhibition of cell growth incubated for 48 hrs by MTT assay; type: toxicity, cell-based
A549 [2] = assay: Antiproliferative activity against human A549 cells assessed as inhibition of cell growth incubated for 48 hrs by MTT assay; type: functional, cell-based; conditions: A549, 48 h
[3] = Cytotoxicity against HUVEC assessed as inhibition of cell growth incubated for 48 hrs by MTT assay; type: toxicity, cell-based; conditions: human
HCT-116 = assay: Antiproliferative activity against human HCT-116 cells assessed as inhibition of cell growth incubated for 48 hrs by MTT assay; type: functional, cell-based; conditions: HCT-116, 48 h
PC-3 = assay: Antiproliferative activity against human PC-3 cells assessed as inhibition of cell growth incubated for 48 hrs by MTT assay; type: functional, cell-based; conditions: PC-3, 48 h
A549 [4] = assay: Induction of cell cycle arrest in human A549 cells assessed as S phase cells at 4 uM incubated for 24 hrs by flow cytometric analysis (reference value: 23.49 %); type: functional
A549 [5] = assay: Induction of cell cycle arrest in human A549 cells assessed as G1 phase cells at 4 uM incubated for 24 hrs by flow cytometric analysis (reference value: 60.75 %); type: functional
[6] = Toxicity in mouse assessed as death at 10 to 20 mg/kg, ip administered for 7 days and measured every 2 days; type: organism-based; conditions: in vivo, 168 h, dose 10-20 mg/kg, time 7 day
A549 [7] = assay: Induction of cell cycle arrest in human A549 cells assessed as G1 phase cells at 2 uM incubated for 24 hrs by flow cytometric analysis (reference value: 60.75 %); type: functional
A549 [8] = assay: Induction of cell cycle arrest in human A549 cells assessed as S phase cells at 2 uM incubated for 24 hrs by flow cytometric analysis (reference value: 23.49 %); type: functional
[9] = Toxicity in mouse assessed as effect on liver pathology at 10 to 20 mg/kg, ip administered for 7 days and measured every 2 days; type: organism-based; conditions: in vivo, 168 h, dose 10-20 mg/kg, time 7 day
[10] = Toxicity in mouse assessed as effect on heart pathology at 10 to 20 mg/kg, ip administered for 7 days and measured every 2 days; type: organism-based; conditions: in vivo, 168 h, dose 10-20 mg/kg, time 7 day
[11] = Toxicity in mouse assessed as effect on kidney pathology at 10 to 20 mg/kg, ip administered for 7 days and measured every 2 days; type: organism-based; conditions: in vivo, 168 h, dose 10-20 mg/kg, time 7 day
A549 [12] = assay: Induction of cell cycle arrest in human A549 cells assessed as G2 phase cells at 4 uM incubated for 24 hrs by flow cytometric analysis (reference value: 15.75 %); type: functional
A549 [13] = assay: Induction of mitochondrial membrane depolarization in human A549 cells assessed as loss of red fluorescence at 2 to 8 uM incubated for 4 hrs by TMRM staining based fluorescence assay; type: functional, cell-based; conditions: dose 2-8 µM
A549 [14] = assay: Induction of apoptosis in human A549 cells at 4 uM by Annexin V-FITC/PI staining based flow cytometric analysis; type: functional, cell-based; conditions: time 12-48 hrs, TDE = time-dependent effect
A549 [15] = assay: Induction of apoptosis in human A549 cells assessed as total apoptotic cells at 1 uM incubated for 48 hrs by Annexin V-FITC/PI staining based flow cytometric analysis relative to control; type: functional
A549 [16] = assay: Inhibition of cell invasion in human A549 cells at 2 to 4 uM incubated for 24 hrs by transwell invasion assay; type: functional, cell-based; conditions: dose 2-4 µM
A549 [17] = assay: Inhibition of cell migration in human A549 cells at 2 uM incubated for 48 hrs by wound healing assay; type: functional, cell-based
[18] = Toxicity in mouse assessed as effect on body weight at 20 mg/kg, ip administered for 7 days and measured every 2 days; type: organism-based; conditions: in vivo, 168 h, time 7 day
A549 [19] = assay: Induction of cell cycle arrest in human A549 cells assessed as G1 phase cells at 1 uM incubated for 24 hrs by flow cytometric analysis (reference value: 60.75 %); type: functional
A549 [20] = assay: Induction of cell cycle arrest in human A549 cells assessed as G2 phase cells at 1 uM incubated for 24 hrs by flow cytometric analysis (reference value: 15.75 %); type: functional
[21] = Toxicity in mouse assessed as effect on spleen pathology at 10 to 20 mg/kg, ip administered for 7 days and measured every 2 days; type: organism-based; conditions: in vivo, 168 h, dose 10-20 mg/kg, time 7 day
A549 [22] = assay: Induction of mitochondrial membrane depolarization in human A549 cells assessed as increase in JC-1 monomer ratio at 2 to 8 uM incubated for 24 hrs by JC-1 staining based flow cytometric analysis; type: functional, cell-based; conditions: dose 2-8 µM
A549 [23] = assay: Induction of apoptosis in human A549 cells assessed as total apoptotic cells at 2 uM incubated for 48 hrs by Annexin V-FITC/PI staining based flow cytometric analysis relative to control; type: functional
A549 [24] = assay: Induction of cell cycle arrest in human A549 cells assessed as S phase cells at 1 uM incubated for 24 hrs by flow cytometric analysis (reference value: 23.49 %); type: functional
A549 [25] = assay: Induction of mitochondrial membrane depolarization in human A549 cells assessed as increase in green fluorescence by measuring JC-1 monomer at 2 to 8 uM incubated for 4 hrs by JC-1 dye based assay; type: functional, cell-based; conditions: dose 2-8 µM
A549 [26] = assay: Antiproliferative activity against human A549 cells assessed as inhibition of cell growth preincubated with FCCP for 1 hrs followed by compound addition and measured after 48 hrs by MTT assay; type: functional, cell-based
[27] = Toxicity in mouse assessed as clinical signs at 10 to 20 mg/kg, ip administered for 7 days and measured every 2 days; type: organism-based; conditions: in vivo, 168 h, dose 10-20 mg/kg, time 7 day
[28] = Toxicity in mouse assessed as effect on lung pathology at 10 to 20 mg/kg, ip administered for 7 days and measured every 2 days; type: organism-based; conditions: in vivo, 168 h, dose 10-20 mg/kg, time 7 day
A549 [29] = assay: Induction of cell cycle arrest in human A549 cells assessed as G2 phase cells at 2 uM incubated for 24 hrs by flow cytometric analysis (reference value: 15.75 %); type: functional
A549 [30] = assay: Induction of apoptosis in human A549 cells assessed as total apoptotic cells at 4 uM incubated for 48 hrs by Annexin V-FITC/PI staining based flow cytometric analysis relative to control; type: functional

Which IC50 (A-375) does the source give for `CO[C@@]12[C@H](COC(N)=O)C3=C(C(=O)C(C)=C(N)C3=O)N1C[C@H]1[C@@H]2N1C(=O)CCCCCCC[P+](c1ccccc1)(c1ccccc1)c1ccccc1` here?
The IC50 was 1860 nM.

And the IC50 (MCF7)?
The IC50 was 6590 nM.

What about the IC50 (MDA-MB-231) of the same compound?
The IC50 was 7640 nM.

What about the IC50 at 48 h [1] of the same compound?
Its IC50 at 48 h is > 20000 nM.

And the IC50 (A549 [2])?
The IC50 was 1310 nM.

And the IC50 at 48 h [3]?
The IC50 at 48 h was > 20000 nM.

And the IC50 (HCT-116)?
The IC50 was 1230 nM.

And the IC50 (PC-3)?
The IC50 was 11900 nM.

Which results are given for `CO[C@@]12[C@H](COC(N)=O)C3=C(C(=O)C(C)=C(N)C3=O)N1C[C@H]1[C@@H]2N1C(=O)CCCCCCCCC[P+](c1ccccc1)(c1ccccc1)c1ccccc1.[Br-]`?
Activity (A549 [4]): 84.94%; IC50 (A-375): 1460 nM; IC50 (MCF7): 5450 nM; Activity (A549 [5]): 0.72%; Activity [6]: Non-Toxic; Activity (A549 [7]): 5.79%; Activity (A549 [8]): 49.53%; IC50 (MDA-MB-231): 3110 nM; Activity [9]: Non-Toxic; Activity [10]: Non-Toxic; Activity [11]: Non-Toxic; Activity (A549 [12]): 14.35%; Activity (A549 [13]): Active; IC50 at 48 h [1]: > 20000 nM; Activity (A549 [14]): Tde; Activity (A549 [15]): 18%; inhibition (A549 [16]): Active; inhibition (A549 [17]): Active; Activity [18]: Non-Toxic; Activity (A549 [19]): 14.87%; IC50 (A549 [2]): 1090 nM; Activity (A549 [20]): 34.21%; Activity [21]: Non-Toxic; Activity (A549 [22]): Active; Activity (A549 [23]): 20.2%; Activity (A549 [24]): 50.92%; IC50 at 48 h [3]: > 20000 nM; Activity (A549 [25]): Active; IC50 (A549 [26]): 11300 nM; Activity [27]: Non-Toxic; IC50 (HCT-116): 1220 nM; IC50 (PC-3): 6050 nM; Activity [28]: Non-Toxic; Activity (A549 [29]): 44.68%; Activity (A549 [30]): 24.9%

Which results are given for `CO[C@@]12[C@H](COC(N)=O)C3=C(C(=O)C(C)=C(N)C3=O)N1C[C@H]1[C@@H]2N1C(=O)CCCCCCCCCCC[P+](c1ccccc1)(c1ccccc1)c1ccccc1`?
IC50 (A-375): 640 nM; IC50 (MCF7): 4560 nM; IC50 (MDA-MB-231): 2630 nM; IC50 at 48 h [1]: > 2500 nM; IC50 (A549 [2]): 670 nM; IC50 at 48 h [3]: > 5000 nM; IC50 (HCT-116): 750 nM; IC50 (PC-3): 970 nM

With `CO[C@@]12[C@H](COC(N)=O)C3=C(C(=O)C(C)=C(N)C3=O)N1C[C@H]1[C@@H]2N1CCCCCCCCCC[P+](c1ccccc1)(c1ccccc1)c1ccccc1` (some centres undefined) as the compound, how does the IC50 (A-375) read?
Its IC50 is 1960 nM.

What about the IC50 (MCF7) of the same compound?
The IC50 was 3170 nM.

What about the IC50 (MDA-MB-231) of the same compound?
Its IC50 is 1950 nM.

And the IC50 at 48 h [1]?
Its IC50 at 48 h is > 5000 nM.

And the IC50 (A549 [2])?
The IC50 was 2820 nM.

And the IC50 at 48 h [3]?
Its IC50 at 48 h is 10000 nM.

And the IC50 (HCT-116)?
The IC50 was 1960 nM.

And the IC50 (PC-3)?
The IC50 was 4710 nM.
